Measurements reported in PMC7518156 (PeerJ, 2020).
Like-named read-outs stand apart in the source and are kept apart here.

Test: Pharmacokinetics of ERL and GEF in Wistar rats after four weeks consumption of water or flavoured water (plasma, UPLC-MS/MS, non-compartmental analysis)
Format: in vivo
Settings: for AUC(0-t): read-out: AUC0-48; for half-life: read-out: t½ (converted)
Procedure: Fifty healthy male Wistar rats weighing 250 ± 30 g were obtained from the animal house, College of Pharmacy, King Saud University, Riyadh, Saudi Arabia. Rats were randomly divided into ten cages (n = 5). All individualized ventilated cages (IVC) type IV used in this study were of 20″L × 11″W × 9″ in dimension capable of hosting 4–5 rats. Cages density, bedding, and sanitation frequency was similar in all cages. Cages were housed at room temperature (25 °C) and at an average relative humidity of 50%. Daily observation of all rats was required to ensure that all animals maintained good health. All animal experiments strictly followed the guidelines of the Ethical Committee for Performing Studies on Animals, King Saud University, Riyadh, Saudi Arabia, protocol number KSU-SE-19-13.
Four types of FW, (Aquafina®, a product of Pepsi-Cola®, Saudi Industrial Projects Company, Jeddah, Saudi Arabia) with different flavours, specifically berry (group II), peach (group III), lime (group IV), and pineapple FW (group V) were used. Other components found in FW used in this study include water, preservatives (sodium phosphate, potassium sorbet, sodium benzoate), acidifiers (citric acid, maleic acid), sweeteners (aspartame, potassium acesulfame, allose), acidity regulator (sodium citrate), and antioxidant agent (calcium disodium EDTA). […] The parallel design was used in this study to avoid animals’ physiological changes that could occur in the cross-over design, possibly affecting PK profiles of drug substances. All animals involved in the study were deprived from food, but not water/FW, for at least 12 h before drug administration. […] Drugs were administered to the rats between 7:00 am and 8:00 am. Rats were separately weighed from day one of water/FW consumption prior to drug administration for accurate dose calculation (Fig. S1). Blood samples (0.3 mL) were collected from each rat immediately prior to dosing (0 time) and at predetermined time points (0.5, 1, 2, 3, 5, 24, and 48 h) post drug administration. Blood samples were withdrawn and processed as described previously ([Maher et al., 2017]; [Maher, Alzoman & Shehata, 2016]; [Maher, Alzoman & Shehata, 2018]). Specifically, blood samples were withdrawn from the retro-orbital sinus into a series of heparinized tubes. Plasma was separated from collected blood samples by centrifugation at 4,500 rpm for 30 min where the centrifuge was maintained at 4 °C, and then stored at −20 °C until the day of analysis. […] A mixture of acetonitrile: water (80: 20, v/v), with 0.1% formic acid was used as a mobile phase at a flow rate of 0.2 mL/min ([Maher, Alzoman & Shehata, 2016]).
Cmax and tmax were obtained from the corresponding plasma concentration–time curve (Figs. 1A and 1B). […] The area under the plasma concentration–time curve from time 0 to the last sampling time t, 48 h (AUC0–t) was calculated using the trapezoidal rule. […] AUC0–∞ was also derived by summing up AUC0–t andthe area obtained by extrapolation from time t to ∞. The latter area was calculated from the division of the last measured concentration (Clast) by λz.
Results were presented as mean ± SD. PK parameters of all treated groups following the consumption of FW were compared with control (rats having free access to water), using one-way ANOVA and Bonferroni’s multiple comparisons test. Statistical significance was obtained with p-values ≤ 0.05.

[1] = male, Wistar, rat, plasma, oral, 20 mg/kg, PKSolver sheet, dose 20 mg/kg, +Berry, read-out: Conc
[2] = male, Wistar, rat, plasma, oral, 20 mg/kg, PKSolver sheet, dose 20 mg/kg, +Lime, read-out: Conc
[3] = male, Wistar, rat, plasma, oral, 20 mg/kg, PKSolver sheet, dose 20 mg/kg, +Peach, read-out: Conc
[4] = male, Wistar, rat, plasma, oral, 20 mg/kg, PKSolver sheet, dose 20 mg/kg, +Pineapple, read-out: Conc
[5] = male, Wistar, rat, plasma, oral, 20 mg/kg, PKSolver sheet, dose 20 mg/kg, drug alone (water), read-out: Conc
[6] = male, Wistar, rat, plasma, po, 20 mg/kg, rats, 20 mg/kg oral, +Berry FW, average, read-out: Conc*10 (ng/mL plasma)
[7] = male, Wistar, rat, plasma, po, 20 mg/kg, rats, 20 mg/kg oral, +Lime FW, average, read-out: Conc*10 (ng/mL plasma)
[8] = male, Wistar, rat, plasma, po, 20 mg/kg, rats, 20 mg/kg oral, +Peach FW, average, read-out: Conc*10 (ng/mL plasma)
[9] = male, Wistar, rat, plasma, po, 20 mg/kg, rats, 20 mg/kg oral, +Pineapple FW, average, read-out: Conc*10 (ng/mL plasma)
[10] = male, Wistar, rat, plasma, po, 20 mg/kg, rats, 20 mg/kg oral, drug alone (water), average, read-out: Conc*10 (ng/mL plasma)
[11] = male, Wistar, rat, plasma, po, 20 mg/kg, rats, 20 mg/kg oral, four weeks berry FW, n = 5, mean (SD)
[12] = male, Wistar, rat, plasma, po, 20 mg/kg, rats, 20 mg/kg oral, four weeks peach FW, n = 5, mean (SD)
[13] = male, Wistar, rat, plasma, po, 20 mg/kg, rats, 20 mg/kg oral, four weeks pineapple FW, n = 5, mean (SD)
[14] = male, Wistar, rat, plasma, po, 20 mg/kg, rats, 20 mg/kg oral, water (control), n = 5, mean (SD)
[15] = male, Wistar, rat, plasma, po, 20 mg/kg, raw data sheet, from average profile, +Berry FW
[16] = male, Wistar, rat, plasma, po, 20 mg/kg, raw data sheet, from average profile, +Lime FW
[17] = male, Wistar, rat, plasma, po, 20 mg/kg, raw data sheet, from average profile, +Peach FW
[18] = male, Wistar, rat, plasma, po, 20 mg/kg, raw data sheet, from average profile, +Pineapple FW
[19] = male, Wistar, rat, plasma, po, 20 mg/kg, raw data sheet, from average profile, drug alone (water)
[20] = rats, lime FW relative to control (water)
[21] = rats, pineapple FW relative to control (water)

concentration at 0 h [1]: 39.1 ng/mL
concentration at 0.5 h [1]: 99.7 ng/mL
concentration at 1 h [1]: 152 ng/mL
concentration at 2 h [1]: 322 ng/mL
concentration at 3 h [1]: 191 ng/mL
concentration at 5 h [1]: 150 ng/mL
concentration at 24 h [1]: 81.4 ng/mL
concentration at 48 h [1]: 30.2 ng/mL
concentration at 0 h [2]: 157 ng/mL
concentration at 0.5 h [2]: 387 ng/mL
concentration at 1 h [2]: 483 ng/mL
concentration at 2 h [2]: 574 ng/mL
concentration at 3 h [2]: 643 ng/mL
concentration at 5 h [2]: 490 ng/mL
concentration at 24 h [2]: 216 ng/mL
concentration at 48 h [2]: 95.2 ng/mL
concentration at 0 h [3]: 44.5 ng/mL
concentration at 0.5 h [3]: 135 ng/mL
concentration at 1 h [3]: 202 ng/mL
concentration at 2 h [3]: 365 ng/mL
concentration at 3 h [3]: 213 ng/mL
concentration at 5 h [3]: 161 ng/mL
concentration at 24 h [3]: 85.3 ng/mL
concentration at 48 h [3]: 25.2 ng/mL
Cmax (male, Wistar, rat, plasma, oral, 20 mg/kg, PKSolver sheet, dose 20 mg/kg, +Pineapple): 445 ng/mL
Tmax (male, Wistar, rat, plasma, oral, 20 mg/kg, PKSolver sheet, dose 20 mg/kg, +Pineapple, read-out: Tmax): 2 h
concentration at 0 h [4]: 75.5 ng/mL
concentration at 0.5 h [4]: 227 ng/mL
concentration at 1 h [4]: 302 ng/mL
concentration at 2 h [4]: 445 ng/mL
concentration at 3 h [4]: 259 ng/mL
concentration at 5 h [4]: 210 ng/mL
concentration at 24 h [4]: 152 ng/mL
concentration at 48 h [4]: 40.2 ng/mL
concentration at 0 h [5]: 34.5 ng/mL
concentration at 0.5 h [5]: 142 ng/mL
concentration at 1 h [5]: 220 ng/mL
concentration at 2 h [5]: 402 ng/mL
concentration at 3 h [5]: 169 ng/mL
concentration at 5 h [5]: 148 ng/mL
concentration at 24 h [5]: 69.8 ng/mL
concentration at 48 h [5]: 29.2 ng/mL
concentration at 0 h [6]: 39.1 ng/mL
concentration at 0.5 h [6]: 99.7 ng/mL
concentration at 1 h [6]: 152 ng/mL
concentration at 2 h [6]: 322 ng/mL
concentration at 3 h [6]: 191 ng/mL
concentration at 5 h [6]: 150 ng/mL
concentration at 24 h [6]: 81.4 ng/mL
concentration at 48 h [6]: 30.2 ng/mL
concentration at 0 h [7]: 157 ng/mL
concentration at 0.5 h [7]: 387 ng/mL
concentration at 1 h [7]: 483 ng/mL
concentration at 2 h [7]: 574 ng/mL
concentration at 3 h [7]: 643 ng/mL
concentration at 5 h [7]: 490 ng/mL
concentration at 24 h [7]: 216 ng/mL
concentration at 48 h [7]: 95.2 ng/mL
concentration at 0 h [8]: 44.5 ng/mL
concentration at 0.5 h [8]: 135 ng/mL
concentration at 1 h [8]: 202 ng/mL
concentration at 2 h [8]: 365 ng/mL
concentration at 3 h [8]: 213 ng/mL
concentration at 5 h [8]: 161 ng/mL
concentration at 24 h [8]: 85.3 ng/mL
concentration at 48 h [8]: 25.2 ng/mL
concentration at 0.5 h [9]: 227 ng/mL
concentration at 1 h [9]: 302 ng/mL
concentration at 2 h [9]: 445 ng/mL
concentration at 3 h [9]: 259 ng/mL
concentration at 5 h [9]: 210 ng/mL
concentration at 24 h [9]: 152 ng/mL
concentration at 48 h [9]: 40.2 ng/mL
concentration at 0 h [10]: 34.5 ng/mL
concentration at 0.5 h [10]: 142 ng/mL
concentration at 1 h [10]: 220 ng/mL
concentration at 2 h [10]: 402 ng/mL
concentration at 3 h [10]: 169 ng/mL
concentration at 5 h [10]: 148 ng/mL
concentration at 24 h [10]: 69.8 ng/mL
concentration at 48 h [10]: 29.2 ng/mL
AUC(0-inf) [11]: 5230 ng·h/mL
CL/F [11]: 74.7 mL/min/kg
AUC(0-t) [11]: 4460 ng·h/mL
Tmax (male, Wistar, rat, plasma, po, 20 mg/kg, rats, 20 mg/kg oral, four weeks berry FW, n = 5, mean (SD), read-out: tmax): 2.33 h
half-life [11]: 1060 min
half-life (male, Wistar, rat, plasma, po, 20 mg/kg, rats, 20 mg/kg oral, four weeks lime FW, n = 5, mean (SD)): 1020 min
AUC(0-inf) [12]: 5300 ng·h/mL
CL/F [12]: 70.3 mL/min/kg
Cmax [12]: 365 ng/mL
AUC(0-t) [12]: 4740 ng·h/mL
Tmax (male, Wistar, rat, plasma, po, 20 mg/kg, rats, 20 mg/kg oral, four weeks peach FW, n = 5, mean (SD), read-out: tmax): 2 h
half-life [12]: 923 min
Cmax [13]: 445 ng/mL
Tmax (male, Wistar, rat, plasma, po, 20 mg/kg, rats, 20 mg/kg oral, four weeks pineapple FW, n = 5, mean (SD), read-out: tmax): 1.71 h
half-life [13]: 1070 min
AUC(0-inf) [14]: 5060 ng·h/mL
CL/F [14]: 77.3 mL/min/kg
Cmax [14]: 406 ng/mL
AUC(0-t) [14]: 4310 ng·h/mL
Tmax (male, Wistar, rat, plasma, po, 20 mg/kg, rats, 20 mg/kg oral, water (control), n = 5, mean (SD), read-out: tmax): 2 h
half-life [14]: 1080 min
AUC [15]: 5230 ng·h/mL
Cmax [15]: 322 ng/mL
Tmax (male, Wistar, rat, plasma, po, 20 mg/kg, raw data sheet, from average profile, +Berry FW, read-out: tmax): 2 h
half-life [15]: 1060 min
AUC [16]: 15400 ng·h/mL
Cmax [16]: 643 ng/mL
half-life [16]: 1020 min
AUC [17]: 5300 ng·h/mL
Cmax [17]: 365 ng/mL
Tmax (male, Wistar, rat, plasma, po, 20 mg/kg, raw data sheet, from average profile, +Peach FW, read-out: tmax): 2 h
half-life [17]: 923 min
AUC [18]: 8170 ng·h/mL
Cmax [18]: 445 ng/mL
Tmax (male, Wistar, rat, plasma, po, 20 mg/kg, raw data sheet, from average profile, +Pineapple FW, read-out: tmax): 2 h
half-life [18]: 1070 min
AUC [19]: 5060 ng·h/mL
Cmax [19]: 402 ng/mL
Tmax (male, Wistar, rat, plasma, po, 20 mg/kg, raw data sheet, from average profile, drug alone (water), read-out: tmax): 2 h
half-life [19]: 1080 min
effect on exposure (AUC0–48) (rats, berry FW relative to control (water)): no effect was found
decrease in apparent oral clearance (CL/F) [20]: 67%
increase in AUC0–48 [20]: 203%
increase in AUC0–∞ [20]: 203%
increase in Cmax [20]: 58%
increase in tmax [20]: ~50%
decrease in apparent oral clearance (CL/F) [21]: ~40%
increase in AUC0–48 [21]: ~65%
increase in AUC0–∞ [21]: ~61%
Tmax (raw data sheet, from average profile, +Lime FW): 3 h
% change FOR C MAX (raw data sheet, +Berry FW vs drug alone): -19% FOR C MAX
% change FOR C MAX (raw data sheet, +Lime FW vs drug alone): 60% FOR C MAX
% change FOR C MAX (raw data sheet, +Peach FW vs drug alone): -9% FOR C MAX
% change FOR C MAX (raw data sheet, +Pineapple FW vs drug alone): 11% FOR C MAX
Compound: COc1cc2ncnc(Nc3ccc(F)c(Cl)c3)c2cc1OCCCN1CCOCC1 [GEF, Gefitinib]
change in t1/2 (rats, all tested FW relative to control (water)): None of the tested FW caused a significant change
